The source made the active and inactive calls. No cut-off for these calls is given here.
Key:
[1] = (§1) Inhibition of NF-kappaB/AP-1 in mouse RAW264.7 cells assessed as reduction in LPS-induced nitric oxide production incubated for 1 hr followed by stimulation with LPS for 24 hrs by Griess assay; format: cell-based
[2] = (§2) Inhibition of NF-kappaB/AP-1 in mouse RAW264.7 cells assessed as reduction in LPS-induced PGE2 production incubated for 1 hr followed by stimulation with LPS for 24 hrs by enzyme immuno assay; format: cell-based
[3] = Cytotoxicity against LPS-induced mouse RAW264.7 cells assessed as decrease in cell viability after 24 hrs by MTT assay; format: toxicity; settings: LPS-induced RAW264.7 cells
RAW264.7 [4] = test: as §1; format: cell-based
RAW264.7 [5] = test: as §2; format: cell-based
Mus musculus = species: Mus musculus; test: Cytotoxicity against LPS-induced mouse RAW264.7 cells assessed as decrease in cell viability up to 50 uM after 24 hrs by MTT assay; format: toxicity, cell-based; settings: raw264.7, 24 h
RAW264.7 [6] = test: Inhibition of NF-kappaB/AP-1 in mouse RAW264.7 cells assessed as reduction in LPS-induced iNOS protein expression incubated for 1 hr followed by stimulation with LPS for 24 hrs by Western blot analysis; format: cell-based
RAW264.7 [7] = test: Inhibition of NF-kappaB/AP-1 in mouse RAW264.7 cells assessed as reduction in LPS-induced iNOS mRNA level incubated for 4 hrs by SYBR green dye based qRT-PCR analysis; format: cell-based
RAW264.7 [8] = test: Inhibition of NF-kappaB/AP-1 in mouse RAW264.7 cells assessed as reduction in LPS-induced COX-2 protein expression incubated for 1 hr followed by stimulation with LPS for 24 hrs by Western blot analysis; format: cell-based
RAW264.7 [9] = test: Inhibition of NF-kappaB/AP-1 in mouse RAW264.7 cells assessed as reduction in LPS-induced COX-2 mRNA level incubated for 4 hrs by SYBR green dye based qRT-PCR analysis; format: cell-based
RAW264.7 [10] = test: Inhibition of NF-kappaB/AP-1 in mouse RAW264.7 cells assessed as reduction in LPS-induced TNF-alpha production incubated for 1 hr followed by stimulation with LPS for 24 hrs by enzyme immuno assay; format: cell-based
RAW264.7 [11] = test: Inhibition of NF-kappaB/AP-1 in mouse RAW264.7 cells assessed as reduction in LPS-induced IL-1beta production incubated for 1 hr followed by stimulation with LPS for 24 hrs by enzyme immuno assay; format: cell-based
RAW264.7 [12] = test: Inhibition of NF-kappaB/AP-1 in mouse RAW264.7 cells assessed as reduction in LPS-induced IL-6 production incubated for 1 hr followed by stimulation with LPS for 24 hrs by enzyme immuno assay; format: cell-based
RAW264.7 [13] = test: Inhibition of NF-kappaB/AP-1 in mouse RAW264.7 cells assessed as reduction in LPS-induced TNF-alpha mRNA level incubated for 4 hrs by SYBR green dye based qRT-PCR analysis; format: cell-based
RAW264.7 [14] = test: Inhibition of NF-kappaB/AP-1 in mouse RAW264.7 cells assessed as reduction in LPS-induced IL-1beta mRNA level incubated for 4 hrs by SYBR green dye based qRT-PCR analysis; format: cell-based
RAW264.7 [15] = test: Inhibition of NF-kappaB/AP-1 in mouse RAW264.7 cells assessed as reduction in LPS-induced IL-6 mRNA level incubated for 4 hrs by SYBR green dye based qRT-PCR analysis; format: cell-based
RAW264.7 [16] = test: Inhibition of LPS-induced NF-kappaB (unknown origin) activity expressed in mouse RAW264.7 cells incubated for 1 hr followed by stimulation with LPS for 18 hrs by luciferase reporter gene assay; format: cell-based
[17] = biological target: Transcription factor Jun (Homo sapiens) (UniProt P05412); test: Inhibition of LPS-induced AP-1 (unknown origin) activity expressed in mouse RAW264.7 cells incubated for 1 hr followed by stimulation with LPS for 18 hrs by luciferase reporter gene assay; format: cell-based
[18] = biological target: Transcription factor p65 (Mus musculus) (UniProt Q04207); test: Inhibition of LPS-induced NF-kappaB p65 subunit nuclear translocation in mouse RAW264.7 cells at 50 uM incubated for 1 hr followed by stimulation with LPS for 15 to 45 mins; format: cell-based
[19] = biological target: Transcription factor p65 (Mus musculus) (UniProt Q04207); test: Inhibition of LPS-induced NF-kappaB p65 subunit phosphorylation in mouse RAW264.7 cells at 50 uM incubated for 1 hr followed by stimulation with LPS for 15 to 45 mins; format: cell-based
[20] = biological target: RAC-alpha serine/threonine-protein kinase (Mus musculus) (UniProt P31750); test: Inhibition of LPS-induced AKT phosphorylation in mouse RAW264.7 cells at 50 uM incubated for 1 hr followed by stimulation with LPS by Western blot analysis; format: cell-based
[21] = biological target: Proto-oncogene c-Fos (Mus musculus) (UniProt P01101); test: Inhibition of LPS-induced AP-1 c-Fos component phosphorylation in nucleus of mouse RAW264.7 cells at 50 uM incubated for 1 hr followed by stimulation with LPS for 15 to 45 mins by Western blot analysis
Proto-oncogene c-Fos (Mus musculus), sequence (P01101 whole entry, looked up): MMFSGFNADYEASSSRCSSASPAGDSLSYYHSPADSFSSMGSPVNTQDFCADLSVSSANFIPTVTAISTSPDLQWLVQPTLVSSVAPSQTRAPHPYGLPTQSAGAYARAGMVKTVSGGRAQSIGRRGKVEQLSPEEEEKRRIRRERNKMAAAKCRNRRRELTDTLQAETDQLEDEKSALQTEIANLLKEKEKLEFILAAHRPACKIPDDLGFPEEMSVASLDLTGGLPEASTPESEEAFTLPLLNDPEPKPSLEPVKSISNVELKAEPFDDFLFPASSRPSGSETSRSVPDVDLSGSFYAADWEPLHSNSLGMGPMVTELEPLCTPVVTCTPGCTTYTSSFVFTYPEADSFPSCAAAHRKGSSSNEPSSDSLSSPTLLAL

Transcription factor p65 (Mus musculus), sequence (Q04207 whole entry): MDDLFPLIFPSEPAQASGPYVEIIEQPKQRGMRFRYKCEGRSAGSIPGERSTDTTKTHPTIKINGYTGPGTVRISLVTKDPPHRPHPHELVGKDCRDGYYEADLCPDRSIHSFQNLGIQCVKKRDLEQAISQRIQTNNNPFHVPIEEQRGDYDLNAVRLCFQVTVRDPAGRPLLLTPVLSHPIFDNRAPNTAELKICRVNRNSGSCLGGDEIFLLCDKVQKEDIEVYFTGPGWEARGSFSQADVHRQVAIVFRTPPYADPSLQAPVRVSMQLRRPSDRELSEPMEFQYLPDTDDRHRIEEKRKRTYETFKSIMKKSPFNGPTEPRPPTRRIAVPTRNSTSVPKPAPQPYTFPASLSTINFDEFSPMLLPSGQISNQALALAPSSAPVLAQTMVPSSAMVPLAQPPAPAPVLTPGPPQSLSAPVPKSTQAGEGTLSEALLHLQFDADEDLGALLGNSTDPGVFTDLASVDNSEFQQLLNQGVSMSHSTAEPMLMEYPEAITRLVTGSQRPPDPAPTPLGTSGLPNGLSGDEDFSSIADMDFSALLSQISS
RAC-alpha serine/threonine-protein kinase (Mus musculus), sequence (P31750 whole entry): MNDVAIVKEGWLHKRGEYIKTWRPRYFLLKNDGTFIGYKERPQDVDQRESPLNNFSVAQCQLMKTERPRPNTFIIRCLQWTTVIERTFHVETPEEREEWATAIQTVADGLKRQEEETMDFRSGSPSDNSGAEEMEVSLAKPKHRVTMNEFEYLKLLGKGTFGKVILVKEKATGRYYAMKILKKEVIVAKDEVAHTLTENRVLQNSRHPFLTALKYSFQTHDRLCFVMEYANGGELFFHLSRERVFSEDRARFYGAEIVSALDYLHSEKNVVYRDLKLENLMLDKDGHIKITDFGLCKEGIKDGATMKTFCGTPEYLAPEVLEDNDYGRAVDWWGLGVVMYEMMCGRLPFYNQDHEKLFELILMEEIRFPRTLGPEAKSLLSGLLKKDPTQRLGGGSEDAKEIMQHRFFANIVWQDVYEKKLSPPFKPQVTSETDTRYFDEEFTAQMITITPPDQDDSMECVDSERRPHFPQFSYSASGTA
Transcription factor Jun (Homo sapiens), sequence (P05412 whole entry): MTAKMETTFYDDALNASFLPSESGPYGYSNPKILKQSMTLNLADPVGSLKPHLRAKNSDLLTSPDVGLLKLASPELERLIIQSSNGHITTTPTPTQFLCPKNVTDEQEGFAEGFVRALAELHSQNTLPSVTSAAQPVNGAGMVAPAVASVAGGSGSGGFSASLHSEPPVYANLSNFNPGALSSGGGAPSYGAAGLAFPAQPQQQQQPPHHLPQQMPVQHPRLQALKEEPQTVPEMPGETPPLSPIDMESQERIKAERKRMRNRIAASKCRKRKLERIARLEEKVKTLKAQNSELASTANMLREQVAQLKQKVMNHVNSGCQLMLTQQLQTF

CC(=O)/C=C/C1=C(C)[C@@H](O)[C@@H](O[C@@H]2O[C@H](COC(=O)/C=C/c3ccc(O)c(O)c3)[C@@H](O)[C@H](O)[C@H]2O)CC1(C)C
IC50 [1]: > 50 µM
IC50 [2]: > 50 µM
IC80 at 24 h [3]: > 100 µM

COc1cc(CCCO)cc(OC)c1O[C@@H]1O[C@H](COC(=O)/C=C/c2ccc(O)c(O)c2)[C@@H](O)[C@H](O)[C@H]1O
IC50 [1]: 43.6 µM
inhibition (RAW264.7 [4]): Dose-dependent effect
IC50 [2]: 48.3 µM
inhibition (RAW264.7 [5]): Dose-dependent effect
IC80 at 24 h [3]: 67.6 µM
Activity (Mus musculus): Non-Toxic
inhibition (RAW264.7 [6]): Dose-dependent effect
inhibition (RAW264.7 [7]): Dose-dependent effect
inhibition (RAW264.7 [8]): Dose-dependent effect
inhibition (RAW264.7 [9]): Dose-dependent effect
inhibition (RAW264.7 [10]): Active
inhibition (RAW264.7 [11]): Active
inhibition (RAW264.7 [12]): Active
inhibition (RAW264.7 [13]): Active
inhibition (RAW264.7 [14]): Active
inhibition (RAW264.7 [15]): Active
inhibition (RAW264.7 [16]): Dose-dependent effect
inhibition [17]: Dose-dependent effect
inhibition [18]: Active
inhibition [19]: Active
inhibition [20]: Active
inhibition [21]: Active

C/C(=C\CO)CO[C@@H]1O[C@H](COC(=O)/C=C/c2ccc(O)c(O)c2)[C@@H](O)[C@H](O)[C@H]1O
IC50 [1]: 31.5 µM
IC50 [2]: > 50 µM
IC80 at 24 h [3]: > 100 µM

CC1=CC(=O)CC(C)(C)[C@@]1(O)/C=C/[C@@H](C)O[C@@H]1O[C@H](COC(=O)/C=C/c2ccc(O)c(O)c2)[C@@H](O)[C@H](O)[C@H]1O
IC50 [1]: > 50 µM
IC50 [2]: > 50 µM
IC80 at 24 h [3]: 67.8 µM

C[C@H](/C=C/[C@@]1(O)[C@H](C)CC(=O)CC1(C)C)O[C@@H]1O[C@H](COC(=O)/C=C/c2ccc(O)c(O)c2)[C@@H](O)[C@H](O)[C@H]1O
IC50 [1]: > 50 µM
IC50 [2]: > 50 µM
IC80 at 24 h [3]: > 100 µM

From ChEMBL document CHEMBL3856253, “6'-O-Caffeoyldihydrosyringin isolated from Aster glehni suppresses lipopolysaccharide-induced iNOS, COX-2, TNF-α, IL-1β and IL-6 expression via NF-κB and AP-1 inactivation in RAW 264.7 macrophages” (Bioorg Med Chem Lett, 2016)
